Measured values as given in ChEMBL document CHEMBL1139089, “The evaluation and structure-activity relationships of 2-benzoylaminobenzoic esters and their analogues as anti-inflammatory and anti-platelet aggregation agents” (Bioorg Med Chem Lett, 2007).

Assays:
Type in all cases: functional, cell-based
[1] = Anticoagulant activity assessed as inhibition of arachidonic acid induced rabbit platelet aggregation; conditions: Oryctolagus cuniculus
[2] = Antiinflammatory activity in neutrophil assessed as inhibition of fMLP induced elastase release; conditions: Homo sapiens
[3] = Anticoagulant activity assessed as inhibition of thrombin induced rabbit platelet aggregation; conditions: Oryctolagus cuniculus
[4] = Antiinflammatory activity in neutrophils assessed as inhibition of oxygen radical generation; conditions: Homo sapiens, Neutrophil

Row | IC50 [1] | IC50 [2] | IC50 [3] | IC50 [4] | SMILES
1 | > 100 µM | > 40 µM | > 100 µM | > 40 µM | COC(=O)c1cccc(Cl)c1NC(=O)c1ccccc1Cl
2 | 10.8 µM | > 40 µM | > 100 µM | 0.65 µM | COC(=O)c1ccccc1NC(=O)c1ccccc1F
3 | 11 µM | > 40 µM | > 100 µM | 11 µM | COC(=O)c1ccccc1NC(=O)c1ccccc1Cl
4 | > 100 µM | 15.4 µM | > 100 µM | > 40 µM | COC(=O)c1ccccc1NC(=O)c1cccc(Br)c1
5 | > 100 µM | > 40 µM | > 100 µM | > 40 µM | COC(=O)c1ccc(Cl)cc1NC(=O)c1ccc(F)cc1
6 | 16.6 µM | > 40 µM | > 100 µM | 9.26 µM | COC(=O)c1ccccc1NC(=O)c1ccccc1C
7 | 8 µM | > 40 µM | > 100 µM | 7.41 µM | COC(=O)c1ccccc1NC(=O)c1ccccc1OC
8 | 1.1 µM | > 40 µM | > 100 µM | > 40 µM | COC(=O)c1ccc(Cl)cc1NC(=O)c1ccccc1Cl
9 | – | 14.3 µM | > 100 µM | 0.17 µM | CCOC(=O)c1ccccc1NC(=O)c1ccccc1F
10 | > 100 µM | 18.3 µM | > 100 µM | > 40 µM | COC(=O)c1ccccc1NC(=O)c1cccc(C)c1
11 | 3.8 µM | > 40 µM | > 100 µM | > 40 µM | CCOC(=O)c1ccc(Cl)cc1NC(=O)c1ccccc1F
12 | 3.6 µM | > 40 µM | > 100 µM | > 40 µM | CCOC(=O)c1ccc(Cl)cc1NC(=O)c1ccccc1Br
13 | > 100 µM | > 40 µM | > 100 µM | > 40 µM | COC(=O)c1ccccc1NC(=O)c1ccc(F)cc1
14 | 80.8 µM | > 40 µM | > 100 µM | > 40 µM | COC(=O)c1c(Cl)cccc1NC(=O)c1ccccc1Cl
15 | 4.9 µM | 2.83 µM | > 100 µM | > 40 µM | CCOC(=O)c1ccc(Cl)cc1NC(=O)c1ccccc1C
16 | 1.6 µM | > 40 µM | > 100 µM | > 40 µM | CCCOC(=O)c1ccc(Cl)cc1NC(=O)c1ccccc1F
17 | 0.7 µM | > 40 µM | > 100 µM | > 40 µM | CCCOC(=O)c1ccc(Cl)cc1NC(=O)c1ccccc1Cl
18 | 76.4 µM | > 40 µM | > 100 µM | > 40 µM | COC(=O)c1c(Cl)cccc1NC(=O)c1ccccc1Br
19 | 3.5 µM | > 40 µM | > 100 µM | > 40 µM | CCCOC(=O)c1ccc(Cl)cc1NC(=O)c1ccccc1Br
20 | > 100 µM | > 40 µM | > 100 µM | > 40 µM | COC(=O)c1ccccc1NC(=O)c1ccc(C)cc1
21 | 4.3 µM | > 40 µM | > 100 µM | > 40 µM | COC(=O)c1ccc(Cl)cc1NC(=O)c1ccccc1C
22 | > 100 µM | > 40 µM | > 100 µM | > 40 µM | COC(=O)c1ccccc1NC(=O)c1ccc(Cl)cc1
23 | – | > 40 µM | > 100 µM | 24.1 µM | CC(=O)c1ccccc1NC(=O)c1ccccc1F
24 | > 100 µM | > 40 µM | > 100 µM | > 40 µM | COC(=O)c1cccc(Cl)c1NC(=O)c1ccccc1Br
25 | > 100 µM | > 40 µM | > 100 µM | > 40 µM | COC(=O)c1ccc(Cl)cc1NC(=O)c1ccc(C)cc1

Row | IC50 [1] | IC50 [2] | IC50 [3] | IC50 [4] | SMILES
26 | > 100 µM | > 40 µM | > 100 µM | > 40 µM | COC(=O)c1ccc(Cl)cc1NC(=O)c1ccc(OC)cc1
27 | > 100 µM | > 40 µM | > 100 µM | > 40 µM | COC(=O)c1ccccc1NC(=O)c1ccc(Br)cc1
28 | > 100 µM | > 40 µM | > 100 µM | > 40 µM | COC(=O)c1ccccc1NC(=O)c1ccc(OC)cc1
29 | > 100 µM | > 40 µM | > 100 µM | > 40 µM | COC(=O)c1cccc(Cl)c1NC(=O)c1ccccc1F
30 | > 100 µM | > 40 µM | > 100 µM | > 40 µM | COC(=O)c1ccccc1NC(=O)c1cccc(OC)c1
31 | > 100 µM | > 40 µM | > 100 µM | > 40 µM | COC(=O)c1cccc(Cl)c1NC(=O)c1ccccc1C
32 | > 100 µM | > 40 µM | > 100 µM | > 40 µM | COC(=O)c1ccccc1NC(=O)c1cccc(Cl)c1
33 | > 100 µM | > 40 µM | > 100 µM | 10.6 µM | COC(=O)c1ccccc1NC(=O)c1cccc(F)c1
34 | 4.9 µM | 4.31 µM | > 100 µM | > 40 µM | CCOC(=O)c1ccc(Cl)cc1NC(=O)c1ccccc1OC
35 | 66.6 µM | > 40 µM | > 100 µM | > 40 µM | COC(=O)c1cccc(Cl)c1NC(=O)c1ccccc1OC
36 | 23.4 µM | > 40 µM | > 100 µM | > 40 µM | CCCOC(=O)c1ccc(Cl)cc1NC(=O)c1ccccc1OC
37 | 22.9 µM | > 40 µM | > 100 µM | 12 µM | COC(=O)c1ccccc1NC(=O)c1ccccc1Br
38 | 2.2 µM | > 40 µM | > 100 µM | > 40 µM | COC(=O)c1ccc(Cl)cc1NC(=O)c1ccccc1F
39 | 62.3 µM | > 40 µM | > 100 µM | > 40 µM | COC(=O)c1c(Cl)cccc1NC(=O)c1ccccc1OC
40 | 0.8 µM | > 40 µM | > 100 µM | > 40 µM | CCOC(=O)c1ccc(Cl)cc1NC(=O)c1ccccc1Cl
41 | 2.6 µM | > 40 µM | > 100 µM | > 40 µM | COC(=O)c1ccc(Cl)cc1NC(=O)c1ccccc1Br
42 | > 100 µM | > 40 µM | > 100 µM | > 40 µM | COC(=O)c1ccc(Cl)cc1NC(=O)c1ccc(Cl)cc1
43 | > 100 µM | > 40 µM | > 100 µM | > 40 µM | COC(=O)c1ccc(Cl)cc1NC(=O)c1ccc(Br)cc1
44 | 78.2 µM | > 40 µM | > 100 µM | > 40 µM | COC(=O)c1c(Cl)cccc1NC(=O)c1ccccc1F
45 | 2.2 µM | > 40 µM | > 100 µM | > 40 µM | COC(=O)c1ccc(Cl)cc1NC(=O)c1ccccc1OC
46 | > 100 µM | > 40 µM | > 100 µM | > 40 µM | COC(=O)c1c(Cl)cccc1NC(=O)c1ccccc1C
47 | 2.2 µM | > 40 µM | > 100 µM | > 40 µM | CCCOC(=O)c1ccc(Cl)cc1NC(=O)c1ccccc1C
48 | 152 µM | > 40 µM | > 100 µM | > 40 µM | CC(=O)Oc1ccccc1C(=O)O [ASPIRIN]
49 | 0.14 µM | > 40 µM | > 100 µM | > 40 µM | COc1ccc2c(c1)c(CC(=O)O)c(C)n2C(=O)c1ccc(Cl)cc1 [INDOMETHACIN]

Row | SMILES | IC50 [1] | IC50 [2] | IC50 [3] | IC50 [4]
50 | c1ccc2c(c1)[I+]c1ccccc1-2 [DIPHENYLENEIODONIUM] | – | – | – | 0.86 µM
51 | O=S(=O)(F)Cc1ccccc1 [PHENYLMETHYLSULFONYLFLUORIDE] | – | 131 µM | – | –
